The text below walks through data of publication PMC4580987, “Catalytic site inhibition of insulin-degrading enzyme by a small molecule induces glucose intolerance in mice” (Nature Communications, 2015).

pIC50: −log10 of the molar value. Bounds are passed on as bounds.

For orientation: melting point means the temperature of the solid-liquid transition. For orientation: pIC50 means the IC50 on a negative log10 scale, so that one unit is a factor of ten. The term inhibition denotes how much of the control response was suppressed. Read a low inhibition as a weak effect.

The test system of one series is mice. Set-up: method as in Maianti et al, Nature 2014. The following applies: ref Maianti et al, Nature 2014, cited from earlier work.
Series [1] has as its target T1, hIDE (Homo sapiens, UniProt P14735).
T1 construct: made in house
T1 sequence (P14735 1-1019): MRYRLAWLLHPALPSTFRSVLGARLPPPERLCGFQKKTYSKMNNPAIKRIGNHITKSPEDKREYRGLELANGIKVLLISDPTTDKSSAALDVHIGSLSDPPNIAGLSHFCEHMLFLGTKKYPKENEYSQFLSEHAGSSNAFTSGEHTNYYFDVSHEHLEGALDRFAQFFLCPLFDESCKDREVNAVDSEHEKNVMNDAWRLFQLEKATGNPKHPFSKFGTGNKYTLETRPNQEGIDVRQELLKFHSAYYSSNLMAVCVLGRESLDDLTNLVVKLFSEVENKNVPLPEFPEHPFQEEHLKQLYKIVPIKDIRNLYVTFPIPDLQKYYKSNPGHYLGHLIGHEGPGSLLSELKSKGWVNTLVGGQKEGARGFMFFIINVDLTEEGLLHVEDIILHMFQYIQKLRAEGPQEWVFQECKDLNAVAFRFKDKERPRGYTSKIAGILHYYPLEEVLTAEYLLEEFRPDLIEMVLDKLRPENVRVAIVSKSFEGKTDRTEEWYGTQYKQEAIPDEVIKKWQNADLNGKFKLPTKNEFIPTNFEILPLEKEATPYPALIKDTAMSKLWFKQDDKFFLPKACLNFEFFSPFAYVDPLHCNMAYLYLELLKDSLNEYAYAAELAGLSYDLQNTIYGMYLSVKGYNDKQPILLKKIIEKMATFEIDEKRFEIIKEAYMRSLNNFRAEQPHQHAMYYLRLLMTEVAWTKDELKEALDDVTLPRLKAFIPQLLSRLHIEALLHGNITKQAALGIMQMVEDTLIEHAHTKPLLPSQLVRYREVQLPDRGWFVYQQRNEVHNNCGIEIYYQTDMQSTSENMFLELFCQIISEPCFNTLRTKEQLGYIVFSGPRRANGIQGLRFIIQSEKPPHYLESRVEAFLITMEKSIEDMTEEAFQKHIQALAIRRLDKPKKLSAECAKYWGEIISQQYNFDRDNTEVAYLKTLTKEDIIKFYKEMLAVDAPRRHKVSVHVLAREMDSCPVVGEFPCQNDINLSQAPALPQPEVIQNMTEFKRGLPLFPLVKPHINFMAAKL
As to the kind of experiment: In vitro hIDE inhibition of Aβ16–23-based substrate hydrolysis. It is filed as biochemical. The following applies: for inhibition at 100 µM: 100 µM (footnote c). How it is done:
In vitro IDE activity was measured with a quenched substrate […]. Human recombinant IDE was cloned and purified as previously described. […] All measurements were carried out as 8-point dose response curves and reported as the average of at least three independent measurements. […] Data analysis was performed using Xlfit v 5.0 and GraphPad Prism v 4.0. Nonlinear curve fitting and statistical analysis was done using built-in functions.

Series [2] deals with T1, hIDE. As to the kind of experiment: In vitro hIDE inhibition of insulin hydrolysis. It is filed as biochemical. The following applies: for pIC50: full insulin substrate, value (CI 95%), mean of 3 to 10 experiments, read-out: IC50 insulin hydrolysis. How it is done: The enzymatic activity of hIDE was assayed quantifying the amount of insulin (Actrapid) at the end of the reaction. The quantity of insulin was determined using a Luminex kit (HMHMAG-34K, Millipore). 20 μl of WT IDE in Hepes buffer (50 mM with 100 mM NaCl, pH 7.4) at 1 μg ml^−1 were pre-incubated 10 min at ambient temperature with 20 μl of test compound or vehicle in 96-well microtiter plates (dark, non-binding surface). The reaction was then started by the addition of 40 μl of insulin at 40 nM. The final concentration of hIDE and substrate was 0.25 μg ml^−1 and 20 nM, respectively. Incubations were performed at ambient temperature for 10 min. The reaction was then stopped by addition of 80 μl of 200 mM EDTA. The samples were diluted by a factor of 3, and 15 μl were transferred to 96-well microtiter plates (dark, clear bottom, non-binding surface) containing 15 μl of assay buffer (from Luminex Kit). Fifteen microlitre of insulin magnetic beads were added. Incubation was performed during 16–18 h at 4 °C under agitation. Wells were washed three times and 30 μl of hormone panel antibodies were added. The samples were incubated 30 min at ambient temperature under agitation. 30 μl of strepdavidin-phycoerythrin were added. Incubation was performed 30 min at ambient temperature under agitation. Wells were washed three times and 80 μl of drive fluid were added. The plate was then read with the MagPix apparatus. Data analysis was performed using Xlfit v 5.0 and GraphPad Prism v 4.0. Nonlinear curve fitting and statistical analysis was done using equation 1: […]
where A is minimum value of y; B is range of y; C is the IC50 value and D is slope factor.

Series [3] relates to human SY5Y neuroblastoma cells. Put plainly: Aβ1–40 secretion by differentiated SH-SY5Y cells (ELISA). It counts as cell-based. The following applies: 10 μM and 30 μM, 48 h. On the procedure: The human neuroblastoma cell lines SH-SY5Y were provided from ATCC (cat. no. crl2266) with a Certificate of Analysis and not checked in the lab for mycoplasma contamination. […] SH-SY5Y were seeded in a 96-well plate at 200,000 cells per cm^2. […] Differentiated cells were then incubated with compounds at 10 μM and 30 μM in presence of 0.1% DMSO.
A general note: An ELISA detects its analyte on a solid surface through an enzyme-linked reagent.

Series [4] has as its target T1, hIDE. As to the kind of experiment: 19F NMR ligand-observed interaction with the enzyme. It is filed as binding. The following applies: 5 μM enzyme. How it is done:
[…] The carrier frequency was set at −100 p.p.m. with a spectral window of 40 ppm, and 4,024 scans were recorded per sample, except for the 6.25 μM sample for which 12,288 scans were recorded.

As for `NCCCC[C@@H]1NC(=O)/C=C/C(=O)N[C@H](C(N)=O)CCCCNC(=O)[C@@H](Cc2ccc(C(=O)c3ccccc3)cc2)NC(=O)[C@H](CC2CCCCC2)NC1=O` [6bK], in the series on mice (IDE dependant, GLP-1 dependant, insulin driven), the “glucose tolerance in OGTT, 6bK” value is reported as “Improves glucose tolerance in OGTT”. Besides, the “glucose tolerance in IPGTT, 6bK” value in the series with mice (IDE dependant) is “Impairs glucose tolerance in IPGTT”. Further, in the series with mice, the “gluconeogenesis in a pyruvate tolerance test, 6bK” value is reported as “Lowers gluconeogenesis” and the “insulin action in vivo (ITT), 6bK” value is listed as “Augments insulin action in vivo”.
For `O=C(C[C@@H](Cc1ccc2ccccc2c1)n1cc(CNC(=O)c2ccccc2)nn1)NO` [Compound 2], the melting point is 192.8 to 194 °C. At hIDE [1], this compound showed a pIC50 of 6.15. The pIC50 at hIDE [2] is 6.29.
`Cc1ccc(C(=O)NCc2cn([C@@H](CC(=O)NO)Cc3ccc4ccccc4c3)nn2)cc1` [Compound 3] registered a melting point of 181.7 to 182.6 °C. The compound also gave a pIC50 against hIDE [1] of 5.57. Moreover, on hIDE [2], the pIC50 was 5.17.
In turn, `COc1ccc(C(=O)NCc2cn([C@@H](CC(=O)NO)Cc3ccc4ccccc4c3)nn2)cc1` [Compound 4] gave a melting point of 178.3 to 179.6 °C. Further, the pIC50 at hIDE [1] is 5.35. Further, the pIC50 on hIDE [2] is 5.47.
On the same counts, the results for `O=C(C[C@@H](Cc1ccc2ccccc2c1)n1cc(CNC(=O)C2CCCCC2)nn1)NO` [Compound 5] are 176.6 to 177.9 °C, 6.10 and 6.36.
In the case of `O=C(C[C@@H](Cc1ccc2ccccc2c1)n1cc(CNC(=O)Cc2ccccc2)nn1)NO` [Compound 6], the results for the pIC50 against hIDE [1] and at hIDE [2] were 5.49 and 6.13, respectively.
As for `Cc1ccc(CC(=O)NCc2cn([C@@H](CC(=O)NO)Cc3ccc4ccccc4c3)nn2)cc1` [Compound 7], the pIC50 at hIDE [1] is 4.92; on hIDE [2] it was 5.64.
Turning to `O=C(C[C@@H](Cc1ccc2ccccc2c1)n1cc(CNS(=O)(=O)c2ccc(F)cc2)nn1)NO` [Compound 9], the melting point was in the range of 157.1 to 158.7 °C. For the same compound, the pIC50 at hIDE [1] was 5.24. The pIC50 at hIDE [2] is 5.22.
On to `Cc1ccc(C(=O)NCc2cn(C(CC(=O)NO)Cc3ccccc3)nn2)cc1` (centres unmarked) [Compound 10], for which, at hIDE [1], the pIC50 was below 4.00 and the inhibition at 100 µM is below 10%. Moreover, the “Aβ1–40 in culture supernatants” value in series [3] is “had no effect”. Further, on hIDE [2], the pIC50 is 5.21. Further, on hIDE [2] (relative to compound 1), the “fold less active than 1 against purified IDE” value is 100 fold.
`O=C(CC(Cc1ccc2ccccc2c1)c1nc(CNC(=O)c2ccccc2)no1)NO` (centres unmarked) [Compound 11]: the pIC50 on hIDE [1] is 4.13; at hIDE [2] it was 5.02.
`O=C(C[C@@H](Cc1ccc2ccccc2c1)c1nc(CNC(=O)c2ccc(F)cc2)no1)NO` [Compound 12]: the pIC50 on hIDE [1] is 4.54; on hIDE [2], 5.19.
The matching figures for `O=C(O)C[C@@H](Cc1ccc2ccccc2c1)n1cc(CNC(=O)c2ccc(F)cc2)nn1` [Compound 14]: below 4.00 and 4.52.
On the same counts, the results for `O=C(C[C@H](Cc1ccc2ccccc2c1)n1cc(CNC(=O)c2ccc(F)cc2)nn1)NO` [Compound 15] are 5.55 and 5.70.
Turning to `O=C(C[C@@H](Cc1ccc2ccccc2c1)n1nncc1CNC(=O)c1ccc(F)cc1)NO` [Compound 16], the results for the pIC50 against hIDE [1] and on hIDE [2] were below 4.00 and 4.92, respectively. The same compound came in with an inhibition at 100 µM on hIDE [1] below 10%. Also, the “19F NMR signal in the presence of enzyme at 2:1 or 1:1 compound:enzyme ratio” value on hIDE [4] is recorded as “signal intensity remains detectable”.
`O=C(C[C@@H](Cc1ccc2ccccc2c1)n1nncc1CNC(=O)C1CCCCC1)NO` [Compound 17]: at hIDE [1], the pIC50 is below 4.00 and the inhibition at 100 µM was below 10%. The pIC50 at hIDE [2] was 4.52.
For `O=C(CC(Cc1ccccc1)n1cc(CNC(=O)c2ccc(F)cc2)nn1)NO` (centres unmarked) [Compound 19], the pIC50 is 4.10 on hIDE [1] and below 4.00 on hIDE [2]. This compound returned an inhibition at 300 µM against hIDE [2] (300 µM (footnote d)) of 50%.
On to `O=C(O)CN(CCN(CC(=O)O)CC(=O)O)CC(=O)O` [EDTA, reference compound], for which, on hIDE [1] (2 mM), the “inhibition of IDE by reference inhibitor” value was determined as 100%.
